# Patent US6177475A, “Methods of using integrin modulators for treatment of inflammation” (priority 1997, dated 2001)
# Where two headings read alike, the source gives them in different places.
# Key:
# VLA-4 (CS-1) = assay: VLA-4-dependent adhesion of Jurkat and MV3 cells to CS-1; assay type: cell-based, human; conditions: in this concentration range
# Procedure: Microtiter plates were coated with ligands of the integrin VLA-4, i.e., recombinant human VCAM-1 (500 nanograms per well) or the fragment of connective segment of human fibronectin (CS-1), covalently attached to ovalbumin (5 micrograms per well) by overnight incubation (4° C.) with solutions of the proteins in phosphate-buffered saline (PBS). The plates were blocked with 1% bovine serum albumin (BSA) in Hanks' buffered salt solution (HBSS-BSA). The cells (Jurkat or human melanoma MV3) were labeled with the fluorescent dye 5-chloromethylfluorescein diacetate (CMFDA) and introduced into the wells of the plates (10^5 cells per well) together with varying amounts of Ajoene. After incubation at 37° C. for 1 h, the unbound cells were removed by aspiration and the wells washed four times with HBSS-BSA. Thereafter, the bound cells were lysed with 0.5% Triton X-100, and the fluorescence was measured using a Cytofluor 2300 plate reader. The number of adherent cells was calculated from a standard dilution curve of Triton X-100 lysates of the CMFDA-labeled cells.
# LFA-1 = assay: TPA-induced homotypic adhesion (aggregation) of peripheral blood leukocytes; assay type: cell-based, human; conditions: ~100 micromoles per liter Ajoene
# Procedure: Normal human peripheral blood leukocytes (PBLS) were cultured for 5 days without stimulation in complete RPMI medium (Sigma Chemical Co., St. Louis, Mo.), washed, and resuspended at 9×10^6 cells/ml in the same medium. Fifty microliters of the cells were added in duplicate to wells containing 100 microliters of an Ajoene solution (50 micrograms/ml),anti-LFA-1 antibody (H52) solution (20 micrograms/ml), or vehicle controls. The plate was then incubated for 30 min at 37° C. before adding to each well 50 microliters of a solution of 12-O-tetradecanoyl 4-β-phorbol 13-acetate (TPA) to the final concentration of 125 ng/ml). The plate was incubated for 45 min at 37° C., followed by additional 10-min incubation at room temperature on a shaking platform. The cells were allowed to settle, and adhesion was quantitated by counting the number of free cells in random high-power fields in the duplicate wells. Following incubation with TPA, 75 to 90% of cells are typically found in large aggregates as a result of LFA-1 upregulation. TPA induced a 90% aggregation in PBLs that were preincubated with vehicle controls. […] This example provides conclusive evidence that, in addition to GP IIb/IIIa and VIA-4, Ajoene modulates the integrin LFA-1. […]
# [1] = test system: SupT1LAV-BRU cells / SupT1 cells (HIV-1LAV-BRU); assay: HIV-induced syncytium formation, SupT1LAV-BRU donor with SupT1 recipient; assay type: cell-based; conditions: Human immunodeficiency virus 1, SUP-T1, 16 h, read-out: IC50 of Ajoene, syncytium formation
# Procedure: Chronically infected and uninfected cell lines (HIV donors and targets, respectively) were maintained as suspension cultures in RPNI-1640 medium supplemented with 10% (v/v) heat-inactivated fetal calf serum, 50 micrograms/ml gentamycin and 2 mM L-glutamine. HIV donors used were (1) a cloned population of H9 cells harboring the genome of HIV-1RF (H9RF cells); and (2) a cloned population of SupT1 cells harboring the genome of HIV-1LAV-BRU (SupT1LAV-BRU cells). To assess the effect of Ajoene on syncytium formation, the donors were mixed with their respective recipients, H9 and SupT1, at a ratio of 1:2 in 96-well flat-bottomed plates (3×10^5 cells per well). Log 10 dilutions of Ajoene were then introduced into the wells, and the cells were cocultured for 16 h. Control wells received the vehicle of Ajoene. By the end of the incubation period syncytia were counted, and the values of IC50 for Ajoene were calculated by plotting relative amounts of syncytia (percent of the syncytia formed in the absence of the compound) against Ajoene concentration.
# HIV-1LAV-BRU 1 = HIV-1LAV-BRU 1 replication in CEM13 cells (HIV antigens by solid phase immunoassay); assay type: cell-based; conditions: for IC50: Human immunodeficiency virus 1, CEM13 cells
# HIV-1 strain IIIB = assay: Protection of MT-4 cells against infection with free HIV (PCR for proviral DNA); assay type: cell-based; conditions: Human immunodeficiency virus 1, IIIB, MT4, 16 hours
# Procedure: The effect of Ajoene in protecting against HIV infection was evaluated using polymerase chain reaction (PCR) analysis which recognized amplified DNA sequences of HIV gag gene. MT-4 cells were used as target cells and strain IIIB of HIV-1 was used as inoculate. Serial dilutions of Ajoene or an equivalent volume of its vehicle were added to MT-4 cells, followed by addition of a sufficient amount of free virus (≥10^3 particles per cell). The protective effect of Ajoene was monitored by examining for the absence or presence of proviral HIV DNA in target cells 16 hours after the inoculation.
# MT-4 cells = assay type: cell-based
# [2] = test system: MOLT-4 cells and syncytiotrophoblasts; assay type: cell-based, human
# Procedure: MOLT-4 clone 8 cells were labeled with calcein-AM, pretreated with different concentrations of Ajoene (0-200 micromoles per liter) and incubated with cultured term syncytiotrophoblast cells at 37° C. for one hour in the presence of Ajoene. Adhesion was measured directly as fluorescence units after background correction. Controls included measuring adhesion in the presence of the appropriate carrier solvent.
# In order to assess the ability of Ajoene to inhibit lymphocyte-mediated HIV infection of syncytiotrophoblasts, HIV-1LBi -infected MOLT-4 cells were added to adherent cultures of uninfected syncytiotrophoblasts in the presence and absence of Ajoene. Various additional control conditions were also established. First, some wells received filtered (0.45 micrometer) supernatant of cell-free HIV from infected cell cultures. Yet other negative controls included syncytiotrophoblasts cultured alone and syncytiotrophoblasts cultured with uninfected MOLT-4 cells. After 24 hours, the cocultures were washed to removed unbound lymphocytes, fixed, permeabilized, stained for viral core antigens (p24 and p55), and viewed under a fluorescence microscope.
# GP IIb/IIIa = conditions: cited from earlier work
smiles,measurement,setting,value
"C=CCSSC=CC[S+]([O-])CC=C (centres unmarked) [Ajoene, 4,5,9-trithiadodeca-1,6,11-triene-9-oxide]",inhibition of adhesion to CS-1,VLA-4 (CS-1),no inhibition of adhesion to CS-1 could be detected
same,inhibition of TPA-induced homotypic adhesion of PBLs,LFA-1,completely inhibited
same,IC50,[1],~0.005 µM
same,"inhibition of HIV replication, stepwise addition","HIV-1LAV-BRU 1; 50 nanomoles per liter per 12 h, total 0.25 micromoles per liter, m.o.i. 0.1, 72 h",30%
same,IC50,"HIV-1LAV-BRU 1; HIV-1Lav-BRU1, read-out: IC50 of HIV replication (FIG. 1, curve 2)",~5 µM
same,IC50,"HIV-1LAV-BRU 1; m.o.i. 0.1, 72 h, read-out: IC50 for HIV-1LAV-BRU 1 replication",~5 µM
same,IC50,HIV-1 strain IIIB,5 µM
same,IC100,HIV-1 strain IIIB; read-out: minimal dose completely preventing HIV infection,17 µM
same,toxic effects on the cells,MT-4 cells,without any toxic effects on the cells
same,toxic effects to the cells,"[2]; HIV infection assay (lymphocyte-mediated), 200 micromoles per liter",without toxic effects to the cells
same,toxic effects on cells,"[2]; adhesion assay, up to 200 micromoles per liter",Without any toxic effects on cells
same,toxic effects in cell-free HIV infection,"[2]; cell-free HIV, 200 micromoles per liter and lower concentrations tested",without toxic effects
same,inhibition of platelet aggregation by inactivation of GP IIb/IIIa,"GP IIb/IIIa; Apitz-Castro et al., 1986","inhibit platelet aggregation by inactivating allosterically the platelet integrin, GP IIb/IIIa"
same,reversibility of integrin inhibition,GP IIb/IIIa,reversible
